In a melting point compilation (Tetko et al.; mined from patent text by program, amines drawn as free bases though some values may be those of a salt):

SMILES | melting point [°C]
Cc1nc(N2CCN(Cc3ccccc3)C2=O)sc1C(=O)NCc1ccc(F)cc1F | 157 to 158
Cc1nc2c(N)nc3cccnc3c2n1Cc1cc(-c2ccc(F)cc2)no1 | 239 to 240
CCN1CCC(O)(c2cccc(OC)c2)CC1 | 86.7 to 91.1
CN(CCC(Oc1ccc(S(=O)(=O)c2ccccc2)cc1)c1ccccc1)CC(=O)O (stereo not given) | 95 to 100
C=C(C)c1nnc(-c2cc3c([nH]c2=O)CCN(Cc2ccccc2)C3)o1 | 221 to 223
O=c1oc2ccccc2cc1CCN1CCC(Nc2nc3ccccc3n2Cc2ccc(F)cc2)CC1 | 168
COc1ccc2c(c1)C1=C(SCC3(CCN(Cc4ccc(F)cc4)CC3)O1)C(=O)C2=O | 196 to 197
C1=CNC(C(c2ccccc2)c2ccccc2)=C(NCc2ccccc2)C=C1 | 186 to 187
O=C(C=CCc1ccccc1)NCCCCCC(=O)NO | 126 to 128
Cc1ccccc1CC(=NC#N)NC(NC(=O)CF)C(C)(C)C (stereo not given) | 151 to 152
O=C1c2cc(Cl)ccc2OC(CCCCl)N1O (stereo not given) | 70 to 75
Cc1ncccc1C(C#N)N1CCN(C(=O)CC(NC(=O)c2cccc(OCc3ccc4ccccc4n3)c2)c2ccccc2)CC1 (stereo not given) | 101 to 104
Cn1c(C(F)(F)F)cc(=O)n(-c2ccc3snc(C4(O)N=C(c5ccccc5)NC4=O)c3c2)c1=O (stereo not given) | 139 to 141
COc1ccccc1N1CCN(c2nc3cccccc-3c2C#N)CC1 | 141 to 143
O=C(NO)c1ccc(CNC(=O)c2[nH]c(-c3ccc(O)cc3)cc2-c2ccsc2)cc1 | 121 to 122
CCCC(=O)Nc1n[nH]c2cc(C(F)(F)F)ccc12 | 200
COc1ccc(CNc2ncnc3c(N4CCOCC4)nc(N4CCC(N(C)C)CC4)nc23)cc1 | 124 to 126
CC(C)(C)NC(=O)[C@@H]1C[C@H](Cl)CN1C(=O)[C@@H](O)[C@H](Cc1ccccc1)NC(=O)[C@H](CCS(C)(=O)=O)NC(=O)OCc1ccccc1 | 99 to 103

SMILES | melting point [°C]
COc1ccc2c(c1)CCC(NCC(=O)O)C2 (stereo not given) | 195 to 198
CC(C)(C)C(=O)Oc1ccc(OC(=O)C(C)(C)C)c(C(=O)OCc2ccccc2)c1 | 90.5 to 91.8
O=C(O)COc1cccc2c1CCc1sc(SC(c3ccccc3F)c3ccccc3F)nc1-2 | 194 to 196
Cc1cc(Nc2ccc(C#N)cc2)c([N+](=O)[O-])c(C)n1 | 171 to 172
CC(C)OC(=O)Cn1c(=O)n(C)c(=O)n(-c2cc(N=c3sc(=O)n4n3CCC=C4)c(F)cc2Cl)c1=O | 99 to 111
O=C(Cc1ccc(OCc2ccccc2)cc1OCc1ccccc1)N1CCN(Cc2ccccc2)CC1 | 104 to 106
CCCC(c1ccccc1)c1ccc(-c2cnn3c(O)ncnc23)cc1 (stereo not given) | 280 to 285
Cc1nc2c(N)nc3ccccc3c2n1CCC1(O)CCCCC1 | > 252
CCCN(CCC)Cc1ccccc1P(=NC(=O)OCC)(c1ccccc1)c1ccccc1 | 102 to 104
NC(=O)CCCCn1cnc(NC(N)=NCC(F)(F)F)n1 | 162 to 164
COc1ccc(C2C(C(=O)/C=C/c3ccc(OC)c(OC)c3)C(=O)CC(c3ccc(OC)c(OC)c3)C2[N+](=O)[O-])cc1 (stereo not given) | 158 to 160
O=C(Nc1ccc(Oc2ccc(C(=O)N3CCC(C(=O)N4CCN(Cc5ccc6c(c5)OCO6)CC4)CC3)cc2)nc1)c1ccc(Cl)c(Cl)c1 | 236 to 238
CCCCNc1cc(C=NO)cc(S(N)(=O)=O)c1Oc1ccccc1 | 226 to 228
O=S(=O)(Nc1ncnc(Cl)c1-c1ccc(-c2ccccc2)cc1)c1ccc(Cl)cc1 | 234 to 235
O=C1CCC(CCC(=O)OCc2ccc(Cl)cc2)N1 (stereo not given) | 63 to 64
C[C@H]1C[C@@H](NC(=O)C(F)(F)F)CC(O)O1 (stereo not given in full) | 159 to 160
COc1ccc(CCN(C)CCc2ccc(NC(=O)c3cccc4c(=O)c5ccccc5[nH]c34)cc2)cc1OC | 180
